Assay results from patent publication US20220274947A1, “NOVEL HETEROARYL-TRIAZOLE COMPOUNDS AS PESTICIDES” (Bayer Aktiengesellschaft, priority 2019, published 2022).

Assays:
Format in all cases: in vivo
Rhipicephalus microplus [1] = test: Rhipicephalus (Boophilus) microplus injection test (BOOPMI Inj); settings: 168 h, injection into adult engorged female ticks, egg deposition after 7 days, read-out: activity (efficacy: 100% means all eggs are infertile); for pest or weed control at 0.004 mg: application rate 4 μg/tick; for pest or weed control at 0.02 mg: application rate 20 μg/tick
Procedure, shortened: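 Five engorged adult female R. microplus ticks injected into the abdomen with 1 μL of compound diluted in DMSO, then kept in a climate chamber. Fertile egg deposition checked after 7 days; eggs without visible fertility held until hatching at about 42 days. Efficacy: 100% = all eggs infertile, 0% = all fertile.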

Rhipicephalus microplus [2] = test: Rhipicephalus (Boophilus) microplus in-vitro contact test, larval cattle tick, strain Parkhurst (BOOPMI Cont); settings: application rate 5 μg/cm^2 (=500 g/ha), tick larvae, after 48 hours, read-out: activity (efficacy: 100% means all larvae are dead or moribund)
Procedure, shortened: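 Acetone solutions dried onto glass tube walls (900 ppm giving 5 μg/cm^2); 20-50 pyrethroid-resistant Parkhurst larvae added per tube and held 48 h at 27° C., 85% relative humidity. Efficacy scored by negative geotaxis as % dead or moribund larvae.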

Ctenocephalides felis [3] = test: Ctenocephalides felis in-vitro contact test, adult cat flea (CTECFE Cont); settings: application rate 5 μg/cm^2 (=500 g/ha), adult cat fleas, after 48 hours, read-out: activity (efficacy: 100% means all fleas are dead or moribund)
Procedure, shortened: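 Acetone solutions coated on glass tube inner walls (900 ppm giving 5 μg/cm^2), then 5-10 adult fleas added and held 48 h at room temperature. Fleas unable to escape a 45-50° C. heating plate within 5 min scored dead or moribund; efficacy = % dead/moribund.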

Ctenocephalides felis [4] = test: Ctenocephalides felis oral test (CTECFE Oral); settings: 48 h, read-out: activity (mortality)
Procedure, shortened: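 About 20 unfed adult cat fleas fed through parafilm on cattle blood containing compound (DMSO concentrate diluted in blood to the desired concentration). Blood held at 37 °C, fleas at room temperature. Mortality (%) scored after 2 days.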

Diabrotica balteata = Diabrotica balteata spray test; settings: 168 h, application rate 100 g/ha (=32 μg/well), wheat seeds, larvae, after 7 days, read-out: activity (efficacy: 100% means all seedlings have grown up like in the untreated, uninfected control)
Procedure, shortened: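 Wheat seedlings, germinated 1 day on agar, were sprayed with compound in acetone/DMF diluted in water containing emulsifier, then infested with 10-20 Diabrotica balteata larvae. After 7 days efficacy in % was scored: 100% means seedlings grew like the untreated, uninfected control; 0% means none grew.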

Myzus persicae = Myzus persicae spray test; settings: in Brassica rapa, foliar, 120 h, read-out: activity (mortality), application rate 100 g/ha, spray, Chinese cabbage leaf disks, after 5 days
Procedure, shortened: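 Compound in acetone/DMF solvent diluted in water with 1000 ppm alkylarylpolyglycol ether emulsifier, sprayed onto Chinese cabbage leaf disks infested with all instars of Myzus persicae. Mortality (%) scored after 5 days.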

Spodoptera frugiperda = Spodoptera frugiperda spray test; settings: in Zea mays, 168 h, read-out: activity (mortality)
Procedure, shortened: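 Maize leaf sections were sprayed with compound formulated in acetone/DMF and diluted in water containing 1000 ppm emulsifier. Dried leaves were infested with fall armyworm larvae, and percent mortality was scored after 7 days.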

| Compound | pest or weed control at 0.004 mg (Rhipicephalus microplus [1]) [%] | pest or weed control at 0.02 mg (Rhipicephalus microplus [1]) [%] | pest or weed control at 5 µg/cm2 (Rhipicephalus microplus [2]) [%] | pest or weed control at 5 µg/cm2 (Ctenocephalides felis [3]) [%] | mortality at 100 ppm (Ctenocephalides felis [4]) [%] | pest or weed control at 32 µg/disc, 100 g/ha (Diabrotica balteata) [%] | mortality at 100 g/ha (Myzus persicae) [%] | mortality at 100 g/ha (Spodoptera frugiperda) [%] |
| --- | --- | --- | --- | --- | --- | --- | --- | --- |
| Cc1nc([C@H](C)NC(=O)c2cc(Br)cc(C#N)c2)n(-c2ccc(C#N)cn2)n1 [II-54] | 100 | 100 | 100 | 100 | 90 | 100 | 90 | 100 |
| Cc1nc([C@H](C)NC(=O)c2cc(Cl)cc(C#N)c2)n(-c2ccc(C#N)cn2)n1 [II-61] | 100 | 100 | 100 | 100 | 100 | 100 | 90 | 100 |
| Cc1nc([C@H](C)NC(=O)c2cc(Cl)nc(C(F)(F)F)c2)n(-c2ccc(C#N)cn2)n1 [II-62] | 100 | 100 | 100 | 100 | 100 | 100 | 100 | 100 |
| Cc1nc([C@H](C)NC(=O)c2cc(Cl)cc(C(F)F)c2)n(-c2ccc(C#N)cn2)n1 [II-65] | 100 | 100 | 100 | 100 | 100 | 80 | 90 | 100 |
| C[C@H](NC(=O)c1cc(OC(F)F)cc(OC(F)F)c1)c1ncnn1-c1ccc(C#N)cn1 [II-77] | 80 |  | 90 | 100 | 100 | 100 | 90 | 100 |
| C[C@H](NC(=O)c1cc(Cl)cc(C(F)(F)F)c1)c1ncnn1-c1ccc(N(C)C(=O)C2CC2)cn1 [II-79] | 100 |  | 100 | 100 | 100 | 100 | 100 | 100 |
| C[C@H](NC(=O)c1cc(C(F)(F)F)cc(C(F)(F)F)c1)c1ncnn1-c1ccc(C(N)=O)cn1 [II-81] | 100 |  | 100 | 100 | 100 | 80 | 90 | 100 |
| C[C@H](NC(=O)c1cc(Br)cc(C(F)F)c1)c1ncnn1-c1ccc(C#N)cn1 [II-83] | 100 |  | 90 | 100 | 100 | 100 | 90 | 100 |
| Cc1nc([C@H](C)NC(=O)c2cc(C(F)(F)F)cc(C(F)(F)F)c2)n(-c2ccc(C(=O)N(C)C3CC3)cn2)n1 [II-96] | 100 |  | 100 | 100 | 100 | 100 | 90 | 100 |
| CCN(C)C(=O)c1ccc(-n2nc(C)nc2[C@H](C)NC(=O)c2cc(C(F)(F)F)cc(C(F)(F)F)c2)nc1 [II-97] | 100 |  | 100 | 100 | 100 | 100 | 100 | 100 |
